How the values were obtained:
Assay in all cases: drug sensitivity score (DSS2, normalised partial AUC of dose-response, 72 h CellTiter-Glo viability) (DSS (dimensionless)); higher = more sensitive (stronger growth inhibition / cytotoxicity); extreme values may be limits of the assay
CAF#7 = test system: CAF#7 (primary prostate cancer-associated fibroblasts of myCAF-like type)
Procedure, shortened: (§1)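 In BREEZE, the drug sensitivity score was derived as a partial area under a fitted logistic dose–response curve over the log of that curve's upper asymptote; a higher score marks a more sensitive response. The input came from low-passage primary prostate cancer-associated fibroblasts, PF179T, WPMY-1, LNCaP and 22Rv1 cells, each seeded into 384-well plates with compounds pre-dispensed at five doses spanning a 10,000-fold range. CellTiter-Glo 2.0 luminescence after 72 h gave viability, which was normalized to vehicle and positive-control wells.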

PF179T = test system: PF179T
Procedure, shortened: as §1

WPMY-1 = test system: WPMY-1
Procedure, shortened: as §1

LNCAP = test system: LNCAP
Procedure, shortened: as §1

CAF#6 = test system: CAF#6 (primary prostate cancer-associated fibroblasts of iCAF-like type)
Procedure, shortened: as §1

CAF#3 = test system: CAF#3 (primary prostate cancer-associated fibroblasts of myCAF-like type)
Procedure, shortened: as §1

CAF#4 = test system: CAF#4 (primary prostate cancer-associated fibroblasts of iCAF-like type)
Procedure, shortened: as §1

CAF#1 = test system: CAF#1 (primary prostate cancer-associated fibroblasts of myCAF-like type)
Procedure, shortened: as §1

CAF#2 = test system: CAF#2 (primary prostate cancer-associated fibroblasts of iCAF-like type)
Procedure, shortened: as §1

CAF#5 = test system: CAF#5 (primary prostate cancer-associated fibroblasts of myCAF-like type)
Procedure, shortened: as §1

22Rv1 = test system: 22Rv1
Procedure, shortened: as §1

| SMILES | drug sensitivity score (CAF#7) | drug sensitivity score (PF179T) | drug sensitivity score (WPMY-1) | drug sensitivity score (LNCAP) | drug sensitivity score (CAF#6) | drug sensitivity score (CAF#3) | drug sensitivity score (CAF#4) | drug sensitivity score (CAF#1) | drug sensitivity score (CAF#2) | drug sensitivity score (CAF#5) | drug sensitivity score (22Rv1) |
| --- | --- | --- | --- | --- | --- | --- | --- | --- | --- | --- | --- |
| O=c1[nH]cc(F)c(=O)[nH]1 [Fluorouracil] (tested concentration range 1-10000 nM) | 2.1 | 3.4 | 0.2 | 4.6 | 1.6 | 0.5 | 2 | 2.6 | 3.6 | 2.9 | 2.4 |
| CC(C)C(=O)Nc1ccc([N+](=O)[O-])c(C(F)(F)F)c1 [Flutamide] (tested concentration range 1-10000 nM) | 0 | 0 | 0 | 1.1 | 0 | 0 | 4.8 | 0 | 2.8 | 0.5 | 0.6 |
| COc1cc2c(Oc3ccc(NC(=O)C4(C(=O)Nc5ccc(F)cc5)CC4)cc3F)ccnc2cc1OCCCN1CCOCC1 [Foretinib] (tested concentration range 0.1-1000 nM) | 7 | 6.8 | 7.9 | 5.6 | 5.2 | 7.9 | 6.9 | 6.8 | 10.3 | 6.7 | 3.4 |
| COc1cc(Nc2ncc(F)c(Nc3ccc4c(n3)N(COP(=O)(O)O)C(=O)C(C)(C)O4)n2)cc(OC)c1OC [Fostamatinib] (tested concentration range 0.2-2500 nM) | 7 | 7.3 | 4.4 | 4.4 | 5.6 | 6.6 | 5.3 | 7.7 | 8.4 | 7.2 | 0 |
| C[C@]12CC[C@@H]3c4ccc(O)cc4C[C@@H](CCCCCCCCC[S+]([O-])CCCC(F)(F)C(F)(F)F)[C@H]3[C@@H]1CC[C@@H]2O (stereo partly drawn) [Fulvestrant] (tested concentration range 0.1-1000 nM) | 0 | 0 | 0 | 0.3 | 0.1 | 0.2 | 0 | 0 | 0 | 0 | 0 |
| CNc1nc(Nc2cn(C(C)(C)C#N)nc2C)ncc1C(F)(F)F [GNE-0877] (tested concentration range 0.1-1000 nM) | 0 | 0 | 0 | 0 | 0 | 0 | 0 | 0 | 0 | 0 | 0 |
| CCCOc1ccn2c(C(C)=O)cc(-c3ccccc3S(C)(=O)=O)c2c1 [GSK2801] (tested concentration range 1-10000 nM) | 0 | 0 | 0 | 1.2 | 0 | 0 | 0 | 0 | 0 | 0.4 | 0 |
| CCOC(=O)CCNc1cc(N2CCc3ccccc3CC2)nc(-c2ccccn2)n1 [GSK-J4] (tested concentration range 10-100000 nM) | 0 | 0.3 | 0.5 | 3.5 | 0 | 0.6 | 3.7 | 2.1 | 4.3 | 0.3 | 2.1 |
| Cc1cccc(-c2nn3c(c2-c2ccnc4ccc(C(N)=O)cc24)CCC3)n1 [Galunisertib] (tested concentration range 0.1-1000 nM) | 0 | 0 | 0 | 0 | 0 | 0.1 | 0 | 0 | 0 | 0 | 0 |
| CC(C)c1cc(-c2n[nH]c(=O)n2-c2ccc3c(ccn3C)c2)c(O)cc1O [Ganetespib] (tested concentration range 0.1-1000 nM) | 15.9 | 20.9 | 24.3 | 21.9 | 14.3 | 16.9 | 18.3 | 24.1 | 20.3 | 22.3 | 23.9 |
| CN(C)C1CCN(C(=O)c2ccc(NC(=O)Nc3ccc(-c4nc(N5CCOCC5)nc(N5CCOCC5)n4)cc3)cc2)CC1 [Gedatolisib] (tested concentration range 0.1-1000 nM) | 13.1 | 8.1 | 14.8 | 19.8 | 10.9 | 8.9 | 5.6 | 5.9 | 5.1 | 9.8 | 22.5 |
| COc1cc2ncnc(Nc3ccc(F)c(Cl)c3)c2cc1OCCCN1CCOCC1 [Gefitinib] (tested concentration range 1-10000 nM) | 0.2 | 1.7 | 2.1 | 2.6 | 0.2 | 0.2 | 2.8 | 0 | 2 | 0.5 | 3.9 |
| Nc1ccn([C@@H]2O[C@H](CO)[C@@H](O)C2(F)F)c(=O)n1 [Gemcitabine] (tested concentration range 0.1-1000 nM) | 7.2 | 18 | 22.5 | 16.4 | 4.4 | 3.9 | 8 | 3.1 | 10 | 5.6 | 20.9 |

Reference: the supplement of paper PMC12592484
